Experimental data: the RepoRT retention time repository (doi:10.1021/acs.analchem.1c00972)

Tests used:
[1] = RP, Waters ACQUITY UPLC BEH C18, 100 × 1 mm, 1.7 µm, 50 °C, 0.3 mL/min, estimated dead time 0.17 min; A: water + 10 mM ammonium bicarbonate; B: 10% water + 90% methanol + 10 mM ammonium bicarbonate; gradient (min/%B) 0/0 15/100 21/100 22/0 30/0; conditions: stereoisomer not certain
[2] = RP, Waters ACQUITY UPLC BEH C18, 100 × 1 mm, 1.7 µm, 50 °C, 0.3 mL/min, estimated dead time 0.17 min; A: water + 0.1% formic acid + 20 mM ammonium formate; B: methanol + 0.1% formic acid + 20 mM ammonium formate; gradient (min/%B) 0/0 15/100 21/100 22/0 30/0; conditions: stereoisomer not certain

| SMILES | LC retention time [1] | LC retention time [2] |
| --- | --- | --- |
| Cc1ccnc(NS(=O)(=O)c2ccc(N)cc2)n1 [Sulfamerazine] | 5.61 min | 7.14 min |
| Cc1cc(=O)n(-c2ccccc2)n1C [Phenazone] | 8.96 min | 8.9 min |
| CCOP(=S)(OCC)ON=C(C#N)c1ccccc1 [Phoxim] | 14.4 min | 15.9 min |
| CCCOc1nn(C(=O)NS(=O)(=O)c2ccccc2C(=O)OC)c(=O)n1C [Propoxycarbazone] | 9.89 min | 11.8 min |
| CC1C(=O)OC2CCN3CC=C(COC(=O)C(C)(O)C1(C)O)C23 (stereo not given) [Monocrotaline] | 8.97 min | 5.17 min |
| O=S(=O)(c1ccc(Cl)cc1)c1ccc(Cl)cc1 [Bis(4-chlorophenyl)sulfone] | 12 min | 14.9 min |
| CCCCC(CC)COC(=O)C(C#N)=C(c1ccccc1)c1ccccc1 (stereo not given) [Octocrylene] | 18.2 min | 17.8 min |
| CC(C)(C)c1cc([N+](=O)[O-])cc([N+](=O)[O-])c1O [Dinoterb] | 12.6 min | 15.7 min |
| Clc1ccc2c(c1)CCc1cccnc1C2=C1CCNCC1 [Desloratadine] | 14.7 min | 11.9 min |
| COCCOCCOCCOCCOC [Tetraglyme] | 9.08 min | 9.01 min |
| CN(C)S(=O)(=O)c1ccc(N)cc1 [4-Amino-N,N-dimethylbenzenesulfonamide] | 8.01 min | 7.95 min |
| CNC(=O)C(C)SCCSP(=O)(OC)OC (stereo not given) [Vamidothion (Vamidoate)] | 9.45 min | 9.33 min |
| CC1CCC2(NC1)OC1CC3C4CC=C5CC(O)CCC5(C)C4CCC3(C)C1C2C (stereo not given) [Solasodin] | 18 min | 14.3 min |
| CC1CC2C3CCC4=CC(=O)C=CC4(C)C3(F)C(O)CC2(C)C1(O)C(=O)CO (stereo not given) [Dexamethasone] | 13.5 min | 13.2 min |
| CCOP(=S)(OCC)Oc1cc(C)nc(C(C)C)n1 [Diazinon] | 16 min | 15.7 min |
| OCC(O)CN1CCN(c2ccccc2)CC1 (stereo not given) [Dropropizine] | 10.7 min | 6.44 min |
| CC12CC3CC(C)(C1)CC(N)(C3)C2 [Memantine] | 13.7 min | 11.9 min |
| CC1(C)OC2CC3C4CC(F)C5=CC(=O)C=CC5(C)C4C(O)CC3(C)C2(C(=O)CO)O1 (stereo not given) [Flunisolide] | 13.8 min | 13.6 min |
| CC1=C2C3OC(=O)C(C)C3CCC2(C)C=CC1=O (stereo not drawn) [alpha-Santonin] | 11.5 min | 11.3 min |
| CCN1CCCC1CNC(=O)c1cc(S(N)(=O)=O)ccc1OC (stereo not drawn) [(s)-(-)-Sulpiride] | 10.3 min | 6.03 min |
| Cc1ccc(C=C2C(=O)C3(C)CCC2C3(C)C)cc1 (stereo not given) [4-Methylbenzylidene camphor] | 17.4 min | 17.1 min |
| CCc1cccc(C)c1N [6-Ethyl-2-toluidine] | 12.7 min | 10.8 min |

| SMILES | LC retention time [1] | LC retention time [2] |
| --- | --- | --- |
| C#CC1(O)C=CC2C3CCC4=CC(=O)CCC4C3CCC21CC (stereo not given) [Gestoden] | 14.3 min | 14 min |
| Nc1ccc(Cc2ccc(N)c(Cl)c2)cc1Cl [2,2'-dichloro-4,4'-methylenedianiline] | 14.3 min | 13.9 min |
| Cc1cccc(N(C)C(=S)Oc2ccc3ccccc3c2)c1 [Tolnaftate] | 17 min | 16.6 min |
| Cc1ccc(OP(=O)(Oc2ccc(C)cc2)Oc2ccc(C)cc2)cc1 [Tricresylphosphate] | 17.7 min | 17.3 min |
| CC(COc1ccccc1Cc1ccccc1)N1CCCCC1 (stereo not given) [Benproperine] | 18.2 min | 13.1 min |
| CCOP(=S)(OCC)Oc1ccc(=O)n(-c2ccccc2)n1 [Pyridaphenthion] | 14.8 min | 14.6 min |
| CC12CCC(=O)C=C1C1CC1C1C2CCC2(C)C1C1CC1C21CCC(=O)O1 (stereo not given) [Drospirenone] | 14.5 min | 14.2 min |
| CNC(=O)ON=CC(C)(C)S(C)=O (stereo not given) [Aldicarb Sulfoxide] | 6.62 min | 6.57 min |
| NC(=O)N1c2ccccc2C2OC2c2ccccc21 (stereo not given) [Carbamazepine-10,11-epoxide] | 11 min | 10.9 min |
| CC(=O)OC1CC2(C)C3(CO3)C1OC1C=C(C)C(=O)C(O)C12CO (stereo not given) [3-Acetyl-Deoxynivalenol] | 9.74 min | 9.62 min |
| CCC1OC(=O)C(C)C(OC2CC(C)(OC)C(O)C(C)O2)C(C)C(OC2OC(C)CC(N(C)C)C2O)C(C)(O)CC(C)C(=O)C(C)C(O)C1(C)O (stereo not given) [Erythromycin] | 15.9 min | 13.2 min |
| CC1=CC2OC3C(O)C(O)C(C)(C34CO4)C2(CO)C(O)C1=O (stereo not given) [Nivalenol] | 5.94 min | 5.87 min |
| C#CC1(OC(C)=O)CCC2C3CCC4=CC(=O)CCC4C3CCC21C (stereo not given) [Norethisterone acetate] | 15.7 min | 15.4 min |
| CC(C)OC(=O)c1ccccc1C(=O)OC(C)C [Diisopropylphthalate] | 15.4 min | 15.1 min |
| Cc1ccc(-c2c(Cl)nc(C#N)n2S(=O)(=O)N(C)C)cc1 [Cyazofamid] | 15.3 min | 15 min |
| CC=C(C)C(=O)OC1CCN2CC=C(COC(=O)C(O)(C(C)O)C(C)(C)O)C12 (stereo not given) [Echimidine] | 13.2 min | 9.4 min |
| CCCCCCCCn1sccc1=O [2-Octyl-4-isothiazolin-3-one] | 15.3 min | 15 min |
| CC(C)=CCOc1c2occc2cc2ccc(=O)oc12 [Imperatorin] | 14.6 min | 14.3 min |
| COc1cc(C)c(C(=O)c2c(OC)ccc(Br)c2C)c(OC)c1OC [Metrafenone] | 16.4 min | 16 min |
| CC12CCC3C(CCC4(O)CC(O)CCC34C=O)C1(O)CCC2C1=CC(=O)OC1 (stereo not given) [Strophanthidin] | 11.3 min | 11 min |
| COc1ccc2c3c1OC1C(O)C=CC4C(C2)N(C)CCC341 (stereo not given) [Codein] | 12.1 min | 6.77 min |
| CCC(C)(CC)c1cc(NC(=O)c2c(OC)cccc2OC)on1 [Isoxaben] | 14.6 min | 14.4 min |

| SMILES | LC retention time [1] | LC retention time [2] |
| --- | --- | --- |
| CNCCCC(C#N)(c1ccc(OC)c(OC)c1)C(C)C (stereo not given) [D617] | 12.4 min | 10.8 min |
| CCCCCCCCCOC(=O)c1ccccc1C(=O)OCCCCCCCCC [Dinonylphthalate] | 20.5 min | 19.7 min |
| Clc1ccccn1 [2-Chloropyridine] | 8.38 min | 8.31 min |
| CC(=O)N(C)N(C(=O)C(=O)N(C)C)c1ccccc1 [AMDOPH] | 9.52 min | 9.42 min |
| Oc1cc(Cl)c(Cl)c(Cl)c1 [3,4,5-trichlorophenol] | 14.2 min | 15.2 min |
| COc1ncc(F)c2nc(S(=O)(=O)Nc3c(F)cccc3F)nn12 [Florasulam] | 9 min | 10.5 min |
| CN1CCN=C(c2ccccc2)c2cc(Cl)ccc21 [Medazepam] | 16.4 min | 11.4 min |
| O=P(O)(Oc1ccccc1)Oc1ccccc1 [Diphenylphosphate] | 10.9 min | 11 min |
| C=C1CC(=CC)C(=O)OC2CCN3CC=C(COC(=O)C1(C)O)C23 (stereo not given) [Seneciphylline] | 11.8 min | 7.89 min |
| CCOC(=O)Nc1cccc(OC(=O)Nc2ccccc2)c1 [Desmedipham] | 13.6 min | 13.5 min |
| OC1C=C2CCN3Cc4cc5c(cc4C(C1O)C23)OCO5 (stereo not given) [Lycorine] | 9.11 min | 4.33 min |
| CCCc1nc(C(C)(C)O)c(C(=O)O)n1Cc1ccc(-c2ccccc2-c2nn[nH]n2)cc1 [Olmesartan] | 10.6 min | 10.9 min |
| COc1ccc(CCC(=O)c2c(O)cc(OC3OC(CO)C(O)C(O)C3OC3OC(C)C(O)C(O)C3O)cc2O)cc1O (stereo not given) [Neohesperidin DC] | 10.4 min | 11.5 min |
| CC=C(C)C(=O)OC1CCC2(C)C3CCC4C5(O)CC(O)C6(O)C(CN7CC(C)CCC7C6(C)O)C5(O)CC42OC13O (stereo not given) [Cevadine] | 16.4 min | 12.6 min |
| CC(C)CC(C)Nc1ccc(Nc2ccccc2)cc1 (stereo not given) [N-(1,3-Dimethylbutyl)-N'-phenyl-1,4-phenylenediamine] | 17.2 min | 13.3 min |
| COc1cc(OC)n2nc(S(=O)(=O)Nc3c(Cl)ccc(C)c3Cl)nc2n1 [Metosulam] | 10.9 min | 12 min |
| COc1ccc(CCN(C)CCCC(C#N)(c2ccc(OC)c(OC)c2)C(C)C)cc1OC (stereo not given) [Verapamil] | 15.9 min | 12.4 min |
| CC1CC2(OC2C)C(=O)OC2CC[N+]3([O-])CC=C(COC(=O)C1(C)O)C23 (stereo not given) [Jacobine N-oxide] | 7.35 min | 6.84 min |
| COc1ccc(NC(=O)N(C)C)cc1Cl [Metoxuron] | 10.7 min | 10.6 min |
| O=C1CC2OCC=C3CN4CCC56c7ccccc7N1C5C2C3CC46 (single isomer, unassigned; (-)) [(-)-Strychnine] | 12.3 min | 7.73 min |
| CCCC(CCC)C(=O)O [Valproic acid] | 10.2 min | 14.2 min |
